According to US5834461A, “Tricyclic benzazepine vasopressin antagonists” (American Cyanamid Company, priority 1997, dated 1998):
pIC50: −log10 of the molar value.

Key:
[1] = molecular target: vasopressin V1 receptor (rat liver plasma membranes) (Rattus norvegicus, UniProt P30560); assay: Binding Assay to Rat Hepatic V1 Receptors; details: for pIC50: rat hepatic V1
Procedure: Rat liver plasma membranes expressing the vasopressin V1 receptor subtypes are isolated by sucrose density gradient according to the method described by Lesko et al., (1973). These membranes are quickly suspended in 50.0 mM Tris.HCl buffer, pH 7.4, containing 0.2% bovine serum albumin (BSA) and 0.1 mM phenylmethylsulfonylfluoride (PMSF) and kept frozen at -70° C. until used in subsequent binding experiments. For binding experiments, the following is added to the wells of a ninety-six well format microtiter plate: 100 μl of 100.0 mM Tris.HCl buffer containing 10.0 mM MgCl2, 0.2% heat inactivated BSA and a mixture of protease inhibitors: leupeptin, 1.0 mg %; aprotinin, 1.0 mg %; 1,10-phenanthroline,2.0 mg %; trypsin inhibitor, 10.0 mg % and 0.1 mM PMSF, 20.0 μl of [phenylalanyl-3,4,5,-^3 H] vasopressin (S.A. 45.1 Ci/mmole) at 0.8 nM, and the reaction initiated by the addition of 80 μl of tissue membranes containing 20 μg of tissue protein. The plates are kept undisturbed on the bench top at room temperature for 120 min. to reach equilibrium. Non-specific samples are assayed in the presence of 0.1 μM of the unlabeled antagonist phenylalanylvasopressin, added in 20.0 μl volume.
For test compounds, these are solubilized in 50% dimethylsulfoxide (DMSO) and added in 20.0 μl volume to a final incubation volume of 200 μl. Upon completion of binding, the content of each well is filtered off, using a Brandel® cell Harvester (Gaithersburg, Md.). The radioactivity trapped on the filter disk by the ligand-receptor complex is assessed by liquid scintillation counting in a Packard LS Counter, with an efficiency of 65% for tritium.

[2] = molecular target: T1, rat kidney medullary V2 receptors (Rattus norvegicus, UniProt Q00788); assay: Binding Assay to Rat Kidney Medullary V2 Receptors; details: for pIC50: rat kidney medullary V2
T1 construct: Medullary tissues from rat kidneys are dissected out; from tissue; host or cells: rat kidney medulla membranes
Procedure: Medullary tissues from rat kidneys are dissected out, cut into small pieces and soaked in a […] sodium chloride solution containing 1.0 mM EDTA with many changes of the liquid phase, until the solution is clear of blood. The tissue is homogenized in a 0.25M sucrose solution containing 1.0 mM EDTA and 0.1 mM PMSF using a Potter-Elvehjem homogenizer with a teflon pestle. The homogenate is filtered through several layers (4 layers) of cheese cloth. The filtrate is rehomogenized using a dounce homogenizer, with a tight fitting pestle. The final homogenate is centrifuged at 1500×g for 15 min. The nuclear pellet is discarded and the supernatant fluid recentrifuged at 40,000×g for 30 min. The resulting pellet formed contains a dark inner part with the exterior, slightly pink. The pink outer part is suspended in a small amount of 50.0 mM Tris.HCl buffer, pH 7.4. The protein content is determined by the Lowry's method (Lowry et al., J. Biol. Chem., 1953). The membrane suspension is stored at -70° C., in 50.0 mM Tris.HCl, containing 0.2% inactivated BSA and 0.1 mM PMSF in aliquots of 1.0 ml containing 10.0 mg protein per ml of suspension until use in subsequent binding experiments.
For binding experiments, the following is added in μl volume to wells of a 96 well format of a microtiter plate: 100.0 μl of 100.0 mM Tris.HCl buffer containing 0.2% heat inactivated BSA, 10.0 mM MgCl2 and a mixture of protease inhibitors: leupeptin, 1.0 mg %; aprotinin, 1.0 mg %; 1,10-phenanthroline, 2.0 mg %; trypsin inhibitor, 10.0 mg % and 0.1 mM PMSF, 20.0 μl of [^3 H] Arginine^8, vasopressin (S.A. 75.0 Ci/mmole) at 0.8 nM and the reaction initiated by the addition of 80.0 μl of tissue membranes (200.0 μg tissue protein). The plates are left undisturbed on the bench top for 120 min to reach equilibrium. Non-specific binding is assessed in the presence of 1.0 μM of unlabeled ligand, added in 20 μl volume. For test compounds, these are solubilized in 50% dimethylsulfoxide (DMSO) and added in 20.0 μl volume to a final incubation volume of 200 μl. Upon completion of binding, the content of each well is filtered off, using a Brandel® cell Harvester (Gaithersburg, Md.). The radioactivity trapped on the filter disk by the ligand-receptor complex is assessed by liquid scintillation counting in a Packard LS Counter, with an efficiency of 65% for tritium.

[3] = system: vasopressin V2; assay: Vasopressin V2 Antagonist Activity in Conscious Hydrated Rats (diuretic effect); type: in vivo, normal Sprague-Dawley rats; details: AVP 0.4 μg/kg i.p.
Procedure: Conscious hydrated rats are treated with compounds under study from 0.1 to 100 mg/kg orally or vehicle. Two to four rats are used for each compound. One hour later, arginine vasopressin (AVP, antidiuretic hormore, ADH) dissolved in peanut oil is administered at 0.4 μg/kg intraperitoneally. Two rats in each test would not receive arginine vasopressin but only the vehicle (peanut oil) to serve as water-loading control. Twenty minutes later each rat is given 30 mL/kg of deionized water orally by gavage and is placed individually in a metabolic cage equipped with a funnel and a graduated glass cylinder to collect urine for four hours. Urine volume is measured and osmolality analyzed by use of a Fiske One-Ten osmometer (Fiske Assoc., Norwood, Mass., USA). Urinary sodium, potassium, and chloride are analyzed by use of ion-specific electrodes in a Beckman E3 (Electrolyte 3) Analyzer. In the following results, […] and decreased osmolality relative to AVP-control indicates activity.

[4] = system: vasopressin V1; assay: Vasopressin V1 Antagonist Activity in Conscious Rats (vasopressin vasopressor response); type: in vivo, rat (spontaneously hypertensive rats); set-up: Average Change: unit not given here
Procedure: Conscious rats are restrained in a supine position with elastic tape. The area at the base of the tail is locally anesthetized by subcutaneous infiltration with 2% procaine (0.2 ml). Using aseptic technique the ventral caudal tail artery is isolated and a cannula made of PE 10 and 20 (heat-fused) tubing is passed into the lower abdominal aorta. The cannula is secured, heparinized (1000 i.u./cc), sealed and the wound closed with one or two stitches of Dexon 4-0. The caudal vein is also cannulated in the same manner for intravenous drug administration. The duration of the surgery is approximately 5 minutes. Additional local anesthesia (2% procaine or lidocaine) is provided as needed.
The animals are placed in plastic restraining cages in an upright position. The cannula is attached to a Statham P23Db pressure transducer and pulsatile blood pressure is recorded. […] The vasopressin injections are repeated 30, 60, 90, 120, 180, 240 and 300 min. later. Percentage of antagonism by the compound is calculated using the pre-drug vasopressin vasopressor response as 100%.

[5] = 10 mg/kg i.v., VAS 0.01 i.u./kg, 30 min
[6] = 10 mg/kg i.v., VAS 0.01 i.u./kg, 60 min
[7] = 10 mg/kg i.v., VAS 0.01 i.u./kg, 90 min
[8] = 10 mg/kg i.v., VAS 0.01 i.u./kg, 120 min
[9] = 10 mg/kg i.v., VAS 0.01 i.u./kg, 180 min
[10] = 10 mg/kg i.v., VAS 0.01 i.u./kg, 240 min
[11] = 10 mg/kg i.v., VAS 0.01 i.u./kg, 300 min
[12] = 10 mg/kg i.v., VAS 0.02 i.u./kg, 30 min
[13] = 10 mg/kg i.v., VAS 0.02 i.u./kg, 60 min
[14] = 10 mg/kg i.v., VAS 0.02 i.u./kg, 90 min
[15] = 10 mg/kg i.v., VAS 0.02 i.u./kg, 120 min
[16] = 10 mg/kg i.v., VAS 0.02 i.u./kg, 180 min
[17] = 10 mg/kg i.v., VAS 0.02 i.u./kg, 240 min
[18] = 10 mg/kg i.v., VAS 0.02 i.u./kg, 300 min

Sequence of vasopressin V1 receptor (rat liver plasma membranes) (P30560 whole entry): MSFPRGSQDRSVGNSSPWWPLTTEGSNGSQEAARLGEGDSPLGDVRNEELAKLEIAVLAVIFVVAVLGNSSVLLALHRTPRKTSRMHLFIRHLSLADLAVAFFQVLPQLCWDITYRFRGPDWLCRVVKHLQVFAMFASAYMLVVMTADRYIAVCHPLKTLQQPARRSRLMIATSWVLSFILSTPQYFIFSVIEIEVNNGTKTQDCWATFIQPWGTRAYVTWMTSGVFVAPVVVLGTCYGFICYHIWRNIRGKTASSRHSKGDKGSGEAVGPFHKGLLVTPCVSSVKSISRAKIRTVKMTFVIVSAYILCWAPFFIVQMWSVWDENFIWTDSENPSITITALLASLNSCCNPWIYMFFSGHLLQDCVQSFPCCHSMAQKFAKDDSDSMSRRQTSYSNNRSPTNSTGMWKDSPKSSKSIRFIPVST
T1 sequence (Q00788 whole entry): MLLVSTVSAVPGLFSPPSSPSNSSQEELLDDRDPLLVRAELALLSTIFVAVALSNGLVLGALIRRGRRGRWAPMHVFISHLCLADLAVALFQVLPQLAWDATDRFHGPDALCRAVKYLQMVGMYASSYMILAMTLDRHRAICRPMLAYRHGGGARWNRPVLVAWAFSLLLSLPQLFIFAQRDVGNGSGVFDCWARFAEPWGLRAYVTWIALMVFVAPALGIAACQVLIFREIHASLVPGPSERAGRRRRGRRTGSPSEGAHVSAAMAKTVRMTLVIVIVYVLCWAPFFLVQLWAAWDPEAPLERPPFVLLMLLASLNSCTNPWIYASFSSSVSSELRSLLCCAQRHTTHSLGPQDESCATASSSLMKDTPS

## O=C(Nc1ccc(C(=O)N2Cc3ccccc3Cc3ccccc32)cc1)c1ccccc1Cl [Example 14, N-[4-[(6,11-Dihydro-5H-dibenz[b,e]azepin-5-yl)-carbonyl]phenyl]-2-chlorobenzamide]
[1]
  pIC50: 7.24
[2]
  pIC50: 7.18
[3]; 30 mg/kg orally
  Osmolality: 739 mOsm/kg
  Urine Volume: 13.1 ml/4 hrs.
[4]; [5]
  Average Change: 11
  Inhibition: 51%
[4]; [6]
  Average Change: 12
  Inhibition: 47%
[4]; [7]
  Average Change: 13.5
  Inhibition: 40%
[4]; [8]
  Average Change: 16
  Inhibition: 29%
[4]; [9]
  Average Change: 21.5
  Inhibition: 4%
[4]; [10]
  Average Change: 26.5
  Inhibition: -18%
[4]; [11]
  Average Change: 24.5
  Inhibition: -9%
[4]; [12]
  Average Change: 23
  Inhibition: 56%
[4]; [13]
  Average Change: 22
  Inhibition: 58%
[4]; [14]
  Average Change: 29.5
  Inhibition: 43%
[4]; [15]
  Average Change: 23.5
  Inhibition: 55%
[4]; [16]
  Average Change: 30.5
  Inhibition: 41%
[4]; [17]
  Average Change: 32
  Inhibition: 38%
[4]; [18]
  Average Change: 33
  Inhibition: 37%

## O=C(Nc1ccc(C(=O)N2Cc3ccccc3Sc3ccccc32)cc1)c1ccc(Cl)cc1Cl [Example 449, N-[4-[(Dibenz[b,f][1,4]thiazepin-10(11H)-yl)-carbonyl]phenyl]-2 4-dichlorobenzamide]
[1]
  pIC50: 6.44
[2]
  pIC50: 6.60
[4]; 10 mg/kg i.v.
  MAX % Inhibition: 45%
  Time of max % inhibition: 90 min

## Cc1ccccc1C(=O)Nc1ccc(C(=O)N2CCc3ccccc3-c3ccccc32)cc1 [Example 92, N-[4-[(6,7-Dihydro-5H-dibenz[b,d]azepin-5-yl)-carbonyl]phenyl]-2-methylbenzamide]
[1]
  pIC50: 7.01
[2]
  pIC50: 7.60
[3]; 10 mg/kg orally
  Osmolality: 679 mOsm/kg
  Urine Volume: 13.5 ml/4 hrs.
[4]; [5]
  Average Change: 10.5
  Inhibition: 65%
[4]; [6]
  Average Change: 18
  Inhibition: 40%
[4]; [7]
  Average Change: 17.5
  Inhibition: 42%
[4]; [8]
  Average Change: 19
  Inhibition: 37%
[4]; [9]
  Average Change: 18
  Inhibition: 40%
[4]; [10]
  Average Change: 19
  Inhibition: 37%
[4]; [11]
  Average Change: 17.5
  Inhibition: 42%
[4]; [12]
  Average Change: 18.5
  Inhibition: 60%
[4]; [13]
  Average Change: 22
  Inhibition: 53%
[4]; [14]
  Average Change: 27
  Inhibition: 42%
[4]; [15]
  Average Change: 20.5
  Inhibition: 56%
[4]; [16]
  Average Change: 29.5
  Inhibition: 37%
[4]; [17]
  Average Change: 18
  Inhibition: 61%
[4]; [18]
  Average Change: 24
  Inhibition: 48%

## Cc1ccccc1C(=O)N(C)c1ccc(C(=O)N2Cc3ccccc3Cc3ccccc32)cc1 [Example 167, N-[4-[ (6,11-Dihydro-5H-dibenz[b,e]azepin-5-yl)carbonyl]phenyl]-N-methyl-2-methylbenzamide]
[1]
  pIC50: 6.29
[2]
  pIC50: 6.37
[3]; 30 mg/kg orally
  Osmolality: 1544 mOsm/kg
  Urine Volume: 2 ml/4 hrs.
[4]; 10 mg/kg i.v.
  MAX % Inhibition: 70%
  Time of max % inhibition: 180 min

## O=C(Nc1ccc(C(=O)N2Cc3ccccc3Cc3ccccc32)cc1)c1c(Cl)cccc1Cl [Example 252, N-[4-[(6,11-Dihydro-5H-dibenz[b,e]azepin-5-yl)-carbonyl]phenyl]-2,6-dichlorobenzamide]
[1]
  pIC50: 6.59
[2]
  pIC50: 6.59
[3]; 10 mg/kg orally
  Osmolality: 790 mOsm/kg
  Urine Volume: 7.5 ml/4 hrs.
[4]; 30 mg/kg i.v.
  MAX % Inhibition: 75%
  Time of max % inhibition: 120 min

## COc1cc(Cl)ccc1C(=O)Nc1ccc(C(=O)N2Cc3ccccc3Cc3ccccc32)cc1 [Example 165, N-[4-[(6,11-Dihydro-5H-dibenz[b,e]azepin-5-yl)carbonyl]phenyl]-2-methoxy-4-chlorobenzamide]
[1]
  pIC50: 6.31
[2]
  pIC50: 6.43

## Cc1ccc(C(=O)Nc2ccc(C(=O)N3Cc4ccccc4Cc4ccccc43)cc2)c(C)c1 [Example 13, N-[4-[(6,11-Dihydro-5H-dibenz[b,e]azepin-5-yl)carbonyl]phenyl]2,4-dimethylbenzamide]
[1]
  pIC50: 6.47
[2]
  pIC50: 6.52

## O=C(Nc1ccc(C(=O)N2Cc3ccccc3Cc3ccccc32)cc1)c1ccc(C(F)(F)F)cc1 [Example 20, N-[4-[(6,11-Dihydro-5H-dibenz[b,e]azepin-5-yl)carbonyl]phenyl]-4-(trifluoromethyl)benzamide]
[1]; 2 h, 10 μM, rat hepatic, read-out: V1, % at concentration in brackets
  inhibition at 10 µM: 17%
[2]; 10 μM, rat kidney, read-out: V2, % at concentration in brackets
  inhibition at 10 µM: 48%

## O=C(Nc1ccc(C(=O)N2Cc3ccccc3Cc3ccccc32)cc1)c1ccc(F)cc1F [Example 21, N-[4-[(6,11-Dihydro-5H-dibenz[b,e]azepin-5-yl)carbonyl]phenyl]-2,4-difluorobenzamide]
[1]
  pIC50: 6.55
[2]
  pIC50: 6.36
